Drawing on patent US11040035B2, “3-oxo-2,6-diphenyl-2,3-dihydropyridazine-4-carboxamides” (BAYER PHARMA AKTIENGESELLSCHAFT, priority 2016, dated 2021), this text covers IC50 for 21 molecules.

In assay [1] the target is T1, AHR (Homo sapiens, UniProt P35869).
T1 sequence (P35869 11-848): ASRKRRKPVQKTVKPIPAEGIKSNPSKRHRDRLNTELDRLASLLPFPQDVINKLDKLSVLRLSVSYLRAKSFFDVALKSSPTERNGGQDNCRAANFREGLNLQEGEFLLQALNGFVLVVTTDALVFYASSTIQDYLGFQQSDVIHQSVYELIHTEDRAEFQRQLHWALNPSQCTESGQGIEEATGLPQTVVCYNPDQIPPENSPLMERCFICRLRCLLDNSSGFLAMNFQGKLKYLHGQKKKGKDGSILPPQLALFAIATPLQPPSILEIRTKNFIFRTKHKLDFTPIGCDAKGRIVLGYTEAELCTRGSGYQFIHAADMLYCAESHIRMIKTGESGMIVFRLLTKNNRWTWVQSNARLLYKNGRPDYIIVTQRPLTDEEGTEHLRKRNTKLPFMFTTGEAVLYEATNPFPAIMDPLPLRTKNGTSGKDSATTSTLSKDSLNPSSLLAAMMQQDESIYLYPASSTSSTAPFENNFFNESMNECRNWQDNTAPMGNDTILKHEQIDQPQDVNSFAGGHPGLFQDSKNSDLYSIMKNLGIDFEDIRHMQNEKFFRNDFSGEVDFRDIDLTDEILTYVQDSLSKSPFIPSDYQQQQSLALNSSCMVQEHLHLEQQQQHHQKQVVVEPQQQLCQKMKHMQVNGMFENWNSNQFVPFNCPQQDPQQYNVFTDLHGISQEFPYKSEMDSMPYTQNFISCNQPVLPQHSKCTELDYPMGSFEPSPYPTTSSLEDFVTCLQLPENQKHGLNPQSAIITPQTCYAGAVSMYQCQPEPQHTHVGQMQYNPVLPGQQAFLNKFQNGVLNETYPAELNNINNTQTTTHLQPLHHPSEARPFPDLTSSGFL
Briefly: In vitro assay 2: agonism in human cell line (transactivation assay).

Assay [2] addresses T1, AHR. Briefly: In vitro assay 1: antagonism in human cell line (transactivation assay, kynurenic acid prestimulated). The following applies: Assay 1: AHR-luc Hum Antagonism IC50 [M], 150 μM kynurenic acid, 20 hours, firefly luciferase.
Where [3] appears, read: read-out: Assay 2: AHR-luc Hum Agonism IC50, no kynurenic acid, 20 hours, firefly luciferase.
Where [4] appears, read: Assay 2: AHR-luc Hum Agonism IC50 [M], no kynurenic acid, 20 hours, firefly luciferase.

In general, IC50 refers to the midpoint of a concentration-inhibition curve. For `N#Cc1cccc(-n2nc(-c3ccc(Cl)cc3)cc(C(=O)NCC(O)C(F)(F)F)c2=O)c1` (single isomer, unassigned) [Example 364, 6-(4-chlorophenyl)-2-(3-cyanophenyl)-3-oxo-N-(3,3,3-trifluoro-2-hydroxypropyl)-2,3-dihydropyridazine-4-carboxamide], the IC50 at AHR [1] (setting [3]) was more than 2e-05 M; at AHR [2], 5.72e-07 M.

Turning to `Cc1cccc(-n2nc(-c3ccc(Cl)cc3)cc(C(=O)NCC(O)C(F)(F)F)c2=O)c1` (single isomer, unassigned) [Example 367, 6-(4-chlorophenyl)-2-(3-methylphenyl)-3-oxo-N-(3,3,3-trifluoro-2-hydroxypropyl)-2,3-dihydropyridazine 4-carboxamide], the values for the IC50 at AHR [1] (setting [4]) and at AHR [2] were more than 2e-05 M and 5e-07 M, respectively.

With `Cc1cccc(-n2nc(-c3ccc(Cl)cc3)cc(C(=O)NCC(O)C(F)(F)F)c2=O)c1` (single isomer, unassigned) [Example 368, 6-(4-chlorophenyl)-2-(3-methylphenyl)-3-oxo-N-(3,3,3-trifluoro-2-hydroxypropyl)-2,3-dihydropyridazine-4-carboxamide], the IC50 on AHR [1] (setting [3]) was more than 2e-05 M; against AHR [2] it was 1.86e-06 M.

For the molecule `O=C(N[C@H]1COC[C@H]1O)c1cc(-c2ccc(Cl)cc2)nn(-c2cccc(F)c2)c1=O` (single isomer, unassigned) [Example 384, 6-(4-chlorophenyl)-2-(3-fluorophenyl)-N-[cis-4-hydroxytetrahydrofuran-3-yl]-3-oxo-2,3-dihydropyridazine-4-carboxamide], the 50% inhibitory concentration (IC50) against AHR [1] (setting [4]) was more than 2e-05 M; on AHR [2], 2.4e-08 M.

Regarding `O=C(N[C@H]1COC[C@H]1O)c1cc(-c2ccc(Cl)cc2)nn(-c2cccc(F)c2)c1=O` (single isomer, unassigned) [Example 385, 6-(4-chlorophenyl)-2-(3-fluorophenyl)-N-[cis-4-hydroxytetrahydrofuran-3-yl]-3-oxo-2,3-dihydropyridazine-4-carboxamide], the IC50 on AHR [1] (setting [3]) is more than 2e-05 M; against AHR [2] it was 8.8e-08 M.

Consider `O=C(NCC(O)C(F)(F)F)c1cc(-c2ccc(Cl)c(F)c2)nn(-c2cc(F)cc(F)c2)c1=O` (single isomer, unassigned) [Example 404, 6-(4-chloro-3-fluorophenyl)-2-(3,5-difluorophenyl)-3-oxo-N-(3,3,3-trifluoro-2-hydroxypropyl)-2,3-dihydropyridazine-4-carboxamide], for which the IC50 against AHR [1] (setting [4]) is more than 2e-05 M; at AHR [2] it was 2.7e-07 M.

For the molecule `O=C(NCC(O)C1CC1)c1cc(-c2ccc(Cl)cc2)nn(-c2cccc(F)c2)c1=O` (single isomer, unassigned; (+)) [Example 192, (+)-6-(4-Chlorophenyl)-N-(2-cyclopropyl-2-hydroxyethyl)-2-(3-fluorophenyl)-3-oxo-2,3-dihydropyridazine-4-carboxamide], the values for the IC50 at AHR [1] (setting [3]) and against AHR [2] were more than 2e-05 M and 1.97e-07 M, respectively.

As to `O=C(NC(CO)C1CC1)c1cc(-c2ccc(Cl)cc2)nn(-c2cccc(F)c2)c1=O` (single isomer, unassigned; (+)) [Example 195, (+)-6-(4-Chlorophenyl)-N-(1-cyclopropyl-2-hydroxyethyl)-2-(3-fluorophenyl)-3-oxo-2,3-dihydropyridazine-4-carboxamide], the IC50 was more than 2e-05 M at AHR [1] (setting [3]) and 2.5e-07 M on AHR [2].

Turning to `CC(CO)CNC(=O)c1cc(-c2ccc(Cl)cc2)nn(-c2cccc(F)c2)c1=O` (single isomer, unassigned; (+)) [Example 201, (+)-6-(4-Chlorophenyl)-2-(3-fluorophenyl)-N-(3-hydroxy-2-methylpropyl)-3-oxo-2,3-dihydropyridazine-4-carboxamide], the IC50 against AHR [1] (setting [4]) is more than 2e-05 M; at AHR [2] it was 8.64e-08 M.

Consider `CC(CCO)NC(=O)c1cc(-c2ccc(Cl)cc2)nn(-c2cccc(F)c2)c1=O` (single isomer, unassigned; (+)) [Example 207, (+)-6-(4-Chlorophenyl)-2-(3-fluorophenyl)-N-(4-hydroxybutan-2-yl)-3-oxo-2,3-dihydropyridazine-4-carboxamide], for which the IC50 on AHR [1] (setting [4]) was more than 2e-05 M; on AHR [2], 6.29e-08 M.

On to `O=C(NC(CO)C1CCC1)c1cc(-c2ccc(Cl)cc2)nn(-c2cccc(F)c2)c1=O` (single isomer, unassigned; (+)) [Example 210, (+)-6-(4-Chlorophenyl)-N-(1-cyclobutyl-2-hydroxyethyl)-2-(3-fluorophenyl)-3-oxo-2,3-dihydropyridazine-4-carboxamide], for which the IC50 against AHR [1] (setting [4]) was more than 2e-05 M; on AHR [2], 4.12e-07 M.

For the molecule `O=C(NCC(O)C(F)F)c1cc(-c2ccc(Cl)cc2)nn(-c2cccc(F)c2)c1=O` (single isomer, unassigned; (+)) [Example 223, (+)-6-(4-Chlorophenyl)-N-(3,3-difluoro-2-hydroxypropyl)-2-(3-fluorophenyl)-3-oxo-2,3-dihydropyridazine-4-carboxamide], the figures for the IC50 on AHR [1] (setting [3]) and against AHR [2] were more than 2e-05 M and 1.28e-07 M, respectively.

For the molecule `O=C(NC(CO)CCO)c1cc(-c2ccc(Cl)cc2)nn(-c2cccc(F)c2)c1=O` (single isomer, unassigned; (+)) [Example 225, (+)-6-(4-Chlorophenyl)-N-(1,4-dihydroxybutan-2-yl)-2-(3-fluorophenyl)-3-oxo-2,3-dihydropyridazine-4-carboxamide], the IC50 is more than 2e-05 M on AHR [1] (setting [4]) and 2.41e-07 M at AHR [2].

`O=C(NCC(O)C(F)(F)F)c1cc(-c2ccc(C(F)(F)F)cc2)nn(-c2cccc(F)c2)c1=O` (single isomer, unassigned; (+)) [Example 244]: the 50% inhibitory concentration (IC50) on AHR [1] (setting [3]) was more than 2e-05 M; against AHR [2], 3.17e-08 M.

For the molecule `O=C(NC(CCO)C(F)(F)F)c1cc(-c2ccc(Cl)cc2)nn(-c2cccc(F)c2)c1=O` (single isomer, unassigned; (+)) [Example 343, (+)-6-(4-chlorophenyl)-2-(3-fluorophenyl)-3-oxo-N-(1,1,1-trifluoro-4-hydroxybutan-2-yl)-2,3-dihydropyridazine-4-carboxamide], the IC50 is more than 2e-05 M on AHR [1] (setting [3]) and 1.49e-08 M against AHR [2].

`O=C(NC(CO)C1CC1)c1cc(-c2ccc(C(F)(F)F)cc2)nn(-c2cccc(F)c2)c1=O` (single isomer, unassigned; (+)) [Example 352, (+)-N-(1-cyclopropyl-2-hydroxyethyl)-2-(3-fluorophenyl)-3-oxo-6-[4-(trifluoromethyl)phenyl]-2,3-dihydropyridazine-4-carboxamide]: the figures for the IC50 on AHR [1] (setting [3]) and on AHR [2] were more than 2e-05 M and 1e-07 M, respectively.

Take `O=C(NC(CO)C(F)(F)F)c1cc(-c2ccc(Cl)cc2)nn(-c2cccc(F)c2)c1=O` (single isomer, unassigned; (-)) [Example 98, (−)-6-(4-Chlorophenyl)-2-(3-fluorophenyl)-3-oxo-N-(1,1,1-trifluoro-3-hydroxypropan-2-yl)-2,3-dihydropyridazine-4-carboxamide]: the IC50 against AHR [1] (setting [4]) and against AHR [2] was more than 2e-05 M throughout.

In the case of `O=C(NCC(O)C1CC1)c1cc(-c2ccc(Cl)cc2)nn(-c2cccc(F)c2)c1=O` (single isomer, unassigned; (-)) [Example 191, (−)-6-(4-Chlorophenyl)-N-(2-cyclopropyl-2-hydroxyethyl)-2-(3-fluorophenyl)-3-oxo-2,3-dihydropyridazine-4-carboxamide], the figures for the IC50 against AHR [1] (setting [4]) and against AHR [2] were more than 2e-05 M and 1.1e-07 M, respectively.

With `O=C(NC(CO)C1CC1)c1cc(-c2ccc(Cl)cc2)nn(-c2cccc(F)c2)c1=O` (single isomer, unassigned; (-)) [Example 194, (−)-6-(4-Chlorophenyl)-N-(1-cyclopropyl-2-hydroxyethyl)-2-(3-fluorophenyl)-3-oxo-2,3-dihydropyridazine-4-carboxamide], the IC50 against AHR [1] (setting [4]) is more than 2e-05 M; against AHR [2], 1.21e-08 M.

As for `CC(CO)CNC(=O)c1cc(-c2ccc(Cl)cc2)nn(-c2cccc(F)c2)c1=O` (single isomer, unassigned; (-)) [Example 202, (−)-6-(4-Chlorophenyl)-2-(3-fluorophenyl)-N-(3-hydroxy-2-methylpropyl)-3-oxo-2,3-dihydropyridazine-4-carboxamide], the IC50 on AHR [1] (setting [3]) was more than 2e-05 M; at AHR [2], 1.02e-07 M.

Take `CC(CCO)NC(=O)c1cc(-c2ccc(Cl)cc2)nn(-c2cccc(F)c2)c1=O` (single isomer, unassigned; (-)) [Example 208, (−)-6-(4-Chlorophenyl)-2-(3-fluorophenyl)-N-(4-hydroxybutan-2-yl)-3-oxo-2,3-dihydropyridazine-4-carboxamide]: the IC50 on AHR [1] (setting [3]) is more than 2e-05 M; against AHR [2], 2e-07 M.
